According to the Kinase Knowledgebase extract (Sharma et al. 2016):
pIC50: −log10 of the molar value.

tested on: MAPK14 (Balb/c mice); assay: Animal Model; conditions: dose or concentration not given here

Row | Compound | inhibition
1 | Cc1nc(COc2ccc(C(=O)Nc3cc(NC(=O)c4cc(F)cc(N5CCOCC5)c4)ccc3C)cc2)cs1 | 0%

biological target: MAPK14 (human) (UniProt Q16539); assay: Inhibition of LPS Induced TNF-alpha Release in Human PBMC; conditions: not given
Sequence (Q16539 whole entry, looked up): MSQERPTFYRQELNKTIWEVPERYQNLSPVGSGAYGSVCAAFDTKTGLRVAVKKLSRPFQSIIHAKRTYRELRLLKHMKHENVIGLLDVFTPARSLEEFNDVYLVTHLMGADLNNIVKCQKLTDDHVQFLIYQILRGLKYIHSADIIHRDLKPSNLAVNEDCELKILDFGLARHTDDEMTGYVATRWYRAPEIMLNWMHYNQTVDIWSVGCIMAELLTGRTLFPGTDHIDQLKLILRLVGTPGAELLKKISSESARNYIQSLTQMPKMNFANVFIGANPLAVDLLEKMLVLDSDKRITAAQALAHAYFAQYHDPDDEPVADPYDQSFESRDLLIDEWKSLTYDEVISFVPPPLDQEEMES

Row | Compound | pIC50
2 | COc1ccc(C(=O)Nc2cc(NC(=O)c3cccc(N(C)C)c3)ccc2C)c(OC)c1 | < 4.30
3 | Cc1ccc(NC(=O)c2cccc(N(C)C)c2)cc1NC(=O)c1ccc(O)cc1 | < 4.30
4 | COc1ccc(C(=O)Nc2cc(NC(=O)c3cccc(N(C)C)c3)ccc2C)cc1 | < 4.30

biological target: MAPK14 (UniProt Q16539); assay: Inhibition of MAPK14 Kinase Activity; conditions: not given
Sequence (Q16539 whole entry, looked up): as above

Row | Compound | pIC50
5 | Cc1nc(COc2ccc(C(=O)Nc3cc(NC(=O)c4cc(F)cc(N5CCOCC5)c4)ccc3C)cc2)cs1 | 7.01
6 | Cc1ccc(NC(=O)c2cccc(N3CCOCC3)c2)cc1NC(=O)c1ccc(OCc2cccnc2)cc1 | 7.02
7 | Cc1ccc(NC(=O)c2cc(F)cc(N3CCOCC3)c2)cc1NC(=O)c1ccc(OCc2ccccn2)cc1 | 7.19
8 | Cc1ccc(NC(=O)c2cccc(N3CCOCC3)c2)cc1NC(=O)c1ccc(OCc2ccncc2)cc1 | 7.66
9 | Cc1ccc(NC(=O)c2cc(F)cc(N3CCOCC3)c2)cc1NC(=O)c1ccc(OCc2cscn2)cc1 | 7.80
10 | Cc1nc(COc2ccc(C(=O)Nc3cc(NC(=O)c4cccc(N5CCOCC5)c4)ccc3C)cc2)cs1 | 7.55
11 | Cc1ccc(NC(=O)c2cccc(N3CCOCC3)c2)cc1NC(=O)c1ccc(OCc2ccccc2)cc1 | 7.43
12 | Cc1ccc(NC(=O)c2cc(F)cc(N3CCOCC3)c2)cc1NC(=O)c1ccc(OCc2ccncc2)cc1 | 7.77
